Measurements taken from patent US20220105051A1, “COMPOUNDS FOR INCREASING MHC-I EXPRESSION AND MODULATING HISTONE DEACETYLASE ACTIVITY” (Cava Healthcare Inc., priority 2019, published 2022).
Entries after “also recorded” stand apart in the source; their conditions may differ.

Tests used:
MHC-I = MHC-I surface expression by flow cytometry; type: cell-based, murine; details: for induction of MHC-I expression at the cell surface: 48 hours after treatment, flow cytometry; for MHC class I upregulation: relative to DMSO
Experimental: (§1) A9 and TC-1 cell lines were trypsinized (0.05%, Gibco), washed twice with PBS (Gibco), and stained with allophycocyanin (APC) conjugated anti-mouse H-2K^b antibody (1:200, Biolegend) suspended in 150 μL of FACS buffer (PBS+2% FBS) for 20 minutes at 4° C. Cells were washed twice with PBS and re-suspended in 200 μL FACs buffer containing 1 μL of 7-aminoactinomycin (7AAD) viability stain (Biolegend). Flow cytometry was performed on the LSRII (BDBiosciences) and analysis was done using FlowJo (Flow cytometry Analysis Software).
(§2) The marine extract library was provided by Dr. Raymond J. Andersen (UBC). The marine invertebrate specimens were collected by SCUBA diving at a 40 metre depth from regions of high marine biodiversity in Papua New Guinea, Indonesia, Thailand, Sri Lanka, Dominica, Brazil, British Columbia, South Africa, and Norway 35. Previously curcuphenol was identified as the active component in one of the marine extracts showing induction of the APM, and since then two new generations of curcuphenol analogues were synthesized in the lab of Dr. Raymond Anderson. To evaluate the ability of these compounds to induce MHC-I surface expression, A9 cells were plated in 6 well plates at 10^5 cells/well and incubated for 24 hours at 37° C. in a 5% CO2 humidified atmosphere. After 24 hours the medium was removed and replaced with medium containing varying concentration of synthesized compounds (6.7 μg/mL, 20 μg/mL, 60 μg/mL). […] Following treatment, cells were incubated for 48 hours at 37° C. with 5% CO2 and humidified atmosphere. After incubation cells were subjected to flow cytometry.
Evaluation of MHC-I surface expression by flow cytometry. LMD:TAP-1 cells or A9 cells were plated in 6 well plates at a concentration of 10,000 cells per well in a 2 mL volume. The next day, cells were treated with the indicated concentrations of the compounds and incubated for 48 hours at 37° C. After incubation, the cells were trypsinized, washed and stained with APC-conjugated anti-mouse MHC-I (specifically anti-H-2K^b) antibody (Biolegend) and assessed by flow cytometry analysis.

A9 cell line = experiment: Cytotoxicity / live cell frequency in A9 cells (flow cytometry, 7AAD); type: cell-based, murine; details: for cytotoxicity: 48 hours after treatment
Experimental: as §1, §2

HDAC8 = biological target: T1, HDAC8 (Homo sapiens, UniProt Q9BY41); experiment: Individualized HDAC assay, HDAC8; type: biochemical; details: purified enzyme; for concentration at which HDAC8 inhibition was seen: 5 to 0.02 μM tested; for HDAC8 activity at higher concentrations: up to 5 μM
T1 construct: purchased BPS Biosciences
T1 sequence (Q9BY41 1-377): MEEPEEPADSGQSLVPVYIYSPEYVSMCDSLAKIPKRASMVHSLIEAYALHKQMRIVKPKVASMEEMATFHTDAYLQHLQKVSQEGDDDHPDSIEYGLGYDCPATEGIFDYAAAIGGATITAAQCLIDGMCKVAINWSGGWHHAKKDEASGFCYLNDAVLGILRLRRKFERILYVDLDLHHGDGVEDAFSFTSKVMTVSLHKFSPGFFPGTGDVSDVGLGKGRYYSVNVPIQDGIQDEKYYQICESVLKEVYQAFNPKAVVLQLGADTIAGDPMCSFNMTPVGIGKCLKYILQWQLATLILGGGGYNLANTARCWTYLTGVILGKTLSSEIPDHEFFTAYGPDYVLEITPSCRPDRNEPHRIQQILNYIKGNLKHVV
Experimental: (§3) The activity of the curcuphenol analogues was assessed with purified HDAC enzymes from all classes I, II, and IV, as well as a select member of HDAC class III (SIRT1). HDACs 1-9 and SIRT1 were evaluated using HDAC Fluorogenic Assay Kits (BPS Biosciences). All assays were completed in black-sided clear-bottom 96 well plates (PerkinElmer), and all treatments were plated in triplicates. Treatment started at 5 μM and was two-fold diluted to a concentration 0.02 μM. The assays were measured using the Synergy HI hybrid reader (BioTek) and Gen5 software (BioTek), excitation was set to 360 nm and detection was measured at 450 nm with a gain of 100. Alternatively HDAC 10 and 11 (BPS Biosciences) were optimized for HDAC concentration using the HDAC-Glo™ I/II Assay and Screening System (Promega). Following optimization each HDAC was run following the Promega protocol in black-sided clear-bottomed 96 well plates in triplicates with same treatments listed above (PerkinElmer). Luminescence was read 30 minutes after HDAC-Glo™I/II reagent was added using the Synergy HI hybrid reader (BioTek) and Gen5 software (Bio-Tek). […] To calculate percent activity, the average of blank wells was subtracted from all treatment groups. The relative mean of activity of the HDAC being measured was determined and all wells that received treatment were divided this average, to give a percentage of activity.
(§4) To evaluate the effect of the compounds on specific HDACs, their activity was assessed with purified HDAC enzymes from all classes I, II, and IV, as well as a select member of HDAC class III (SIRT1). HDACs 1-9 and SIRT1 were evaluated using HDAC Fluorogenic Assay Kits (BPS Biosciences) following the manufacturer's recommendations. Compound treatment started at 5 μM and was two-fold diluted to a concentration 0.02 μM. Alternatively, HDAC 10 and 11 assays (BPS Biosciences) were optimized to be used with the HDAC-Glo™ I/II Assay and Screening System (Promega). The assays were measured using the Synergy HI hybrid reader (BioTek) and Gen5 software (Bio-Tek). […] To calculate the fold change in HDAC activity, the values from each treated well were divided by the relative mean of activity of the specific HDAC being measured.

HDAC10 = biological target: T2, HDAC10 (Homo sapiens, UniProt Q969S8); experiment: Individualized HDAC assay, HDAC10 (HDAC-Glo); type: biochemical; details: purified enzyme; for HDAC10 activity: 5 to 0.02 μM
T2 construct: purchased BPS Biosciences
T2 sequence (Q969S8 1-669): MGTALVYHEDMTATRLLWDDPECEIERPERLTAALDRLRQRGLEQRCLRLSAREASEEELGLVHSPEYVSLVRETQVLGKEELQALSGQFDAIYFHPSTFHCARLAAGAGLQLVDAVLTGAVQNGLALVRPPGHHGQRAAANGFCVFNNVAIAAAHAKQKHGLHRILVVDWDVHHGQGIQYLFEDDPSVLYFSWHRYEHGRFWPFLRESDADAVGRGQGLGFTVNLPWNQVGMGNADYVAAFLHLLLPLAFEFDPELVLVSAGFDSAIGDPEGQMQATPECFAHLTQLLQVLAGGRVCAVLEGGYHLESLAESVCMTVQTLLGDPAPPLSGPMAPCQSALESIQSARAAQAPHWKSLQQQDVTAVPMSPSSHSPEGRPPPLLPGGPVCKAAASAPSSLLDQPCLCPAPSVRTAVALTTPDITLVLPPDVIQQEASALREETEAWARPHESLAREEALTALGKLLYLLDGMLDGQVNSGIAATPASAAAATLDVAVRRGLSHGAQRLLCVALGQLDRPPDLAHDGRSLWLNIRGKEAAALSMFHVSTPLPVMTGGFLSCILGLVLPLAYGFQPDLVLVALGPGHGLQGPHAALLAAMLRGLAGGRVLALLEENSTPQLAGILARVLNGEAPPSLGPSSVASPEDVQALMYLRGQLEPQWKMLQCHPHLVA
Experimental: as §3, §4

SMILES	concentration of optimum MHC upregulation and live cell frequency (MHC-I; A9 cells, 48 hours)	induction of MHC-I expression at the cell surface (MHC-I; A9 cells)	MHC class I upregulation (MHC-I; A9 cells, 48 hours, 0.032, 0.064 and 0.128 μmol)	MHC class I upregulation (MHC-I; A9 cells, 48 hours, 0.055, 0.064 and 0.071 umol)	surface MHC I molecules (MHC-I; cancer cell lines in vitro)	cytotoxicity (A9 cell line)	live cell frequency (A9 cell line; 48 hours, 0.128 μmol)	effect on HDAC8 activity (HDAC8)	HDAC10 activity (HDAC10)	concentration at which HDAC8 inhibition was seen (HDAC8)	HDAC8 activity at higher concentrations (HDAC8)	concentration range of HDAC10 enhancement (HDAC10)	HDAC10 activity (HDAC10; listed as PO-3-97-1)
CC(C)=CCC[C@H](C)c1ccc(C)cc1O [Curcuphenol, curcuphenol]	0.064 µmol	enhances the expression of MHC-I	upregulated	upregulated	significantly increased	low cellular toxicity	drops substantially	selectively inhibits	activates				
CC(C)=CCCCc1ccc(C)cc1O [P02-113]		strong induction of MHC-I; also recorded: greatest consistent induction of MHC-I expression; also recorded: highest expression of MHC-I				low cytotoxicity; also recorded: lowest cytotoxicity		act as inhibitors to HDAC8; also recorded: slight inhibition at lower concentrations	enhanced; also recorded: increase in activity levels	≤ 0.3 µM	no change in HDAC8 activity	enhanced at all concentrations tested	
COc1ccc(C(C)CCC=C(C)C)c(O)c1 (stereo not drawn) [P03-97-1]		strong induction of MHC-I; also recorded: greatest consistent induction of MHC-I expression; also recorded: highest expression of MHC-I				low cytotoxicity; also recorded: lowest cytotoxicity		act as inhibitors to HDAC8; also recorded: slight inhibition at lower concentrations	enhanced; also recorded: increase in activity levels	0.02 µM	no change in activity	enhanced at all concentrations tested	enhanced
